Assay results: EP4702982A1, “VITALITY IMPROVING AGENT, COMPOSITION FOR IMPROVING VITALITY, AND FOOD COMPOSITION FOR IMPROVING VITALITY” (Med R&D Co. Ltd, priority 2023, dated 2024)

Assays:
[1] = tested on: human primary hair papilla cells (HFDPC); assay: Cytotoxicity (MTT cell viability) in hair papilla cells; assay type: cell-based; set-up: key: -: No cytotoxicity was observed.; ±: The cell viability was reduced by 40% or more at a volume of 1/100.; +: The cell viability was reduced by 10% or more at a volume of 1/10,000.; ++: The cell viability was reduced by 40% or more at a volume of 1/10,000; conditions: same method as Experimental Example 4
Procedure: The cytotoxicity of the pine needle extract of Production Example 1 was examined. Regarding the cells, human primary hair papilla cells (HFDPC, purchased from PromoCell GmbH), which are mesenchymal cells isolated from the papilla of normal human scalp hair follicles, were used. HFDPCs were seeded on a collagen-coated 96-well plate at a concentration of 5 × 10^4 cells/well and incubated at 37°C in a humidified atmosphere of 5% CO2. As a culture medium, a hair papilla cell growth culture medium to which growth factors (bovine fetal serum, insulin, transferrin, triiodothyronine, bovine pituitary extract, and a cyproterone solution) had been added was used. After 24 hours, the culture medium for the cells was replaced with a culture medium to which a pine needle extract was added at a volume of 0 (control), 1/6,000, 1/5,000, 1/4,000, 1/3,000, 1/2,000, 1/1,000, 1/500, 1/250, or 1/100, and the cells were incubated for 48 hours. […] Specifically, an MTT reagent (5 mg/mL) was added to the cells, the cells were incubated for 8 hours, subsequently 10% sodium dodecyl sulfate (SDS) was added thereto, and the cells were incubated overnight. Thereafter, the absorbance at 570 nm was measured using a microplate reader, and the cell viability was quantified as a proportion (%) of the absorbance with respect to the absorbance of untreated cells. […]

CTNNB1 gene (β-catenin) = assay: Quantitative real-time PCR of hair growth-related gene CTNNB1 in HFDPCs; assay type: cell-based, human; set-up: key to CTNNB1: -: Expression was suppressed.; ±: No significant difference was observed in the expression enhancing effects at at least some of the concentrations.; +: A significant difference with p < 0.05 or more was observed in the expression enhancing effects at all concentrations.; ++: A significant difference with p < 0.01 or more was observed in the expression enhancing effects at all concentrations; conditions: for CTNNB1: extracts at a volume of 1/6,000 or 1/10,000 (Production Examples 1 and 6 at non-cytotoxic concentration), D-pinitol and shikimic acid at 1 µM and 10 µM; for expression enhancing effects for CTNNB1 (in words): summary of Table 5
Procedure: (§1) The pine needle extract of Production Example 1 was added to the culture medium for HFDPCs, and the expression of hair growth markers was measured by quantitative real-time PCR. As the hair growth markers, CTNNB1 gene (β-catenin), ALPL gene (alkaline phosphatase), and FGF1 gene (fiblobrast growth factor 1) were examined. It is known that β-catenin induces anagen of the hair cycle and promotes the proliferation of keratinocytes. ALPL is a representative hair growth marker in the hair papilla cells. FGF1 is a marker for morphogenesis of hair follicles. HFDPCs were seeded in a 6-well plate at a concentration of 5 × 10^4 cells/well and incubated at 37°C for 24 hours. Subsequently, the culture medium was removed and replaced with a culture medium containing a pine needle extract at a volume of 1/4,000 and 1/2,000. Furthermore, for a comparison, cells treated with a culture medium to which minoxidil (0.1 µM), an existing therapeutic agent for hair loss, was added, were also prepared. Subsequently, after 48 hours, the cells were washed with cold PBS, and total RNA was extracted using an ISOGEN kit (Nippon Gene Co., Ltd.). Subsequently, the total RNA was quantified using a NanoDrop 2000 spectrophotometer (Thermo Fisher Scientific, Inc.), and quantitative real-time PCR analysis was performed. […] Subsequently, real-time PCR was carried out using a 7500 Fast Real-Time PCR system (Software 1.3.1, Thermo Fisher Scientific, Inc.) and TaqMan probes specific for CTNNB1, ALPL, and FGF1. GAPDH was used as an endogenous control, and the 2^- △△Ct method was applied, to calculate the relative amount of mRNA in comparison with GAPDH. The effect of the pine needle extracts of Production Examples 3 to 6 on the hair growth-related genes was examined by the same method as that used in Experimental Example 6. Furthermore, the same examination was carried out for D-pinitol and shikimic acid. The pine needle extracts of Production Examples 3 to 6 were each added to the culture medium for cells at a volume of 1/6,000 or a volume of 1/10,000. The pine needle extracts of Production Examples 1 and 6 were each added to the culture medium for cells at a concentration at which cytotoxicity was not observed. D-pinitol was added to the culture medium for cells at 1 µM and 10 µM. Shikimic acid was added to the culture medium for cells at 1 µM and 10 µM. In the following Table 5, "CTNNB1", "ALPL", and "FGF1" indicate the evaluation results for the expression enhancing effects of each hair growth-related gene. […]

[2] = tested on: ALPL gene (alkaline phosphatase); assay: Quantitative real-time PCR of hair growth-related gene ALPL in HFDPCs; assay type: cell-based, human; set-up: key to ALPL: -: Expression was suppressed.; ±: No significant difference was observed in the expression enhancing effects at at least some of the concentrations.; +: A significant difference with p < 0.05 or more was observed in the expression enhancing effects at all concentrations.; ++: A significant difference with p < 0.01 or more was observed in the expression enhancing effects at all concentrations; conditions: for ALPL: extracts at a volume of 1/6,000 or 1/10,000 (Production Examples 1 and 6 at non-cytotoxic concentration), D-pinitol and shikimic acid at 1 µM and 10 µM; for expression enhancing effects for ALPL (in words): summary of Table 5
Procedure: as §1

[3] = tested on: FGF1 gene (fiblobrast growth factor 1); assay: Quantitative real-time PCR of hair growth-related gene FGF1 in HFDPCs; assay type: cell-based, human; set-up: key to FGF1: -: Expression was suppressed.; ±: No significant difference was observed in the expression enhancing effects at at least some of the concentrations.; +: A significant difference with p < 0.05 or more was observed in the expression enhancing effects at all concentrations.; ++: A significant difference with p < 0.01 or more was observed in the expression enhancing effects at all concentrations; conditions: for FGF1: extracts at a volume of 1/6,000 or 1/10,000 (Production Examples 1 and 6 at non-cytotoxic concentration), D-pinitol and shikimic acid at 1 µM and 10 µM; for expression enhancing effects for FGF1 (in words): summary of Table 5
Procedure: as §1

[4] = Body weight and food intake during 7-day oral administration; assay type: in vivo, ICR mouse; conditions: 20 mg/kg bupropion oral, daily for 7 days
Procedure: In the following Table 6, "LPS" indicates lipopolysaccharide. Furthermore, bupropion administered to a positive control group is an antidepressant. The mice in each group were kept for 7 days to be acclimatized, and then a pine needle extract was orally administered daily for 7 days. Thereafter, neuroinflammation was induced in the brain by a single intraperitoneal administration of LPS, and depression was developed. A tail suspension test was performed the day after the administration of LPS. In the tail suspension test, a SMART 3.0 video image behavior analysis device (Panlab S.L.U.) was used. The brain was removed the day after the tail suspension test, and the hippocampus was further collected and used in the experiment that will be described later.

Structure (SMILES)	Cytotoxicity [1]	CTNNB1 (CTNNB1 gene (β-catenin))	expression enhancing effects for CTNNB1 (in words) (CTNNB1 gene (β-catenin))	ALPL [2]	expression enhancing effects for ALPL (in words) [2]	FGF1 [3]	expression enhancing effects for FGF1 (in words) [3]	Final body weight [4] [g]	Increase in body weight (g / 7 days) [4] [g / 7 days]	Total amount of food intake (g / 7 days) [4] [g / 7 days]	Initial body weight ([4]; baseline) [g]
O=C(O)C1=C[C@@H](O)[C@@H](O)[C@H](O)C1 [Shikimic acid]	-	+	exhibited expression enhancing effects	±	did not exhibit expression enhancing effects	++	exhibited expression enhancing effects				
CO[C@H]1[C@H](O)[C@@H](O)[C@@H](O)[C@H](O)[C@@H]1O [D-pinitol]	-	++	exhibited expression enhancing effects	-	did not exhibit expression enhancing effects	++	exhibited expression enhancing effects				
CC(NC(C)(C)C)C(=O)c1cccc(Cl)c1 (stereo not drawn) [bupropion]								35.6 ± 0.7	2.9 ± 0.4	25.0 ± 1.2	32.7 ± 0.8
